According to PMC11124362, “Metabolism, Disposition, Excretion, and Potential Transporter Inhibition of 7–16, an Improving 5-HT2A Receptor Antagonist and Inverse Agonist for Parkinson’s Disease” (Molecules, 2024):

Tests used:
[1] = Excretion and metabolite identification in urine and feces of intact rats; type: in vivo, Sprague-Dawley rats; details: for Dose% Feces, female / Dose% Urine, female: female rats; for Dose% Feces, female / Dose% Urine, female / Dose% Feces, male / Dose% Urine, male: single oral dose [14C]7–16 3 mg/100 µCi/kg; for Dose% Feces, male / Dose% Urine, male: male rats
Description: (§1) In the urine and feces excretion experiment, six rats (3 females and 3 males) were administered a single oral dose of [^14C]7–16 at 3 mg/100 µCi/kg. Urine, feces and cage washing/cleaning solution samples were collected from 0 to 168 h following drug administration at the following time intervals: 0–8, 8–24 h (0–24 h for feces), 24–48, 48–72, 72–96, 96–120, 120–144, and 144–168 h. In the biliary excretion experiment, 8 rats using a bile duct cannula (BDC) (4 females and 4 males) were administered a single oral dose of [^14C]7–16 at 3 mg/100 µCi/kg. Bile, urine, feces, and cage washing solution were collected from before and 0–72 h after oral administration at the following time intervals: 0–4, 4–8 (urine 0–8), 8–24 (feces 0–24), 24–48, and 48–72 h. All samples were collected and refrigerated at −20 °C until determination of the radioactive concentrations by liquid scintillation counter (Perkin Elmer Corporation, Waltham, MA, USA). Urine, feces, and bile samples at each time period were mixed by equal percentages of either volume or weight. After the mixed samples were treated, the radio-profiles and metabolite identification in the bile, urine, and feces samples were carried out by LC-RAM and UPLC-Q Exactive HRMS, and the TRA% of each metabolite in plasma and the percentage of dose (dose%) of each compound in urine, feces, and bile samples were calculated.

[2] = Metabolite identification in rat plasma after oral [14C]7–16; type: in vivo, Sprague-Dawley rats; details: single oral dose [14C]7–16 3 mg/100 µCi/kg, pooled plasma 0.25-24 h; for TRA% Plasma, female: female rats; for TRA% Plasma, male: male rats
Description: The rats received a single oral dose of [^14C]7–16 at 3 mg/100 µCi/kg (3 females and 3 males for each time point). At 0.25, 1, 6, and 24 h after administration, about 0.3 mL of blood was collected into a collection vessel containing K2-EDTA anticoagulant by cardiac puncture, and the plasma samples were acquired after centrifugation at 8000 rpm for 10 min at 4 °C. All samples were stored at −20 °C until analysis. The rat plasma samples at each time point were mixed in accordance with the area under the concentration curve contribution at corresponding time intervals. After the pooled plasma samples were pre-treated, the radio-profiles of plasma samples were detected using Shimadzu LC coupled with a radioactivity monitor (LC-RAM, Scintillation and Luminescence Counter Technology, Perkin Elmer Corporation, Waltham, MA, USA), and the metabolites were identified by UPLC-QE HRMS (Thermo Electron Corporation, Waltham, MA, USA). The percentage of each metabolite based on the total radiation intensity (TRA%) in plasma samples was calculated. The structures of metabolites were identified by the same method used for metabolite identification in the liver microsomes of different species.

[3] = Excretion and metabolite identification in bile duct cannulated (BDC) rats; type: in vivo, Sprague-Dawley rats; details: single oral dose [14C]7–16 3 mg/100 µCi/kg; for Dose% Bile, female: female BDC rats; for Dose% Bile, male: male BDC rats
Description: as §1

[4] = Metabolite identification in dog liver microsomes; type: in vitro ADME; details: 7–16 10 µM, liver microsomes 1 mg/mL, NADPH, 37 °C, 60 min
Description: (§2) In accordance with our previous methods, 7–16 (10 µM) was incubated with mouse, rat, dog, monkey, and human liver microsome proteins (1 mg/mL) in 100 mM sodium phosphate buffer (pH 7.4) containing 10 mM magnesium chloride and 2 mM NADPH at 37 °C for 60 min. All samples were prepared in duplicates. The reactions were terminated by adding three times the volume of ice-cold acetonitrile (600 µL) and stored at −20 °C until analysis. Control samples without NADPH and 0-time point samples were included. As a positive control, testosterone (10 µM), which was metabolized to produce the hydroxylation metabolite, was used as a substrate to confirm the activity of the incubation system.
(§3) After pre-treatments, the samples were analyzed by an Acquity UPLC system coupled with a diode array detector (Waters Corporation, Milford, MA, USA) and Q Exactive HRMS (Thermo Electron Corporation, Waltham, MA, USA) (UPLC–UV-Q Exactive HRMS). Samples were separated on an Agilent XDB C18 column (150 × 2.1 mm i.d. 3.5 μm, Agilent Corporation, Santa Clara, CA, USA) at 40 °C by gradient elution with water and acetonitrile containing 0.1% formic acid. The flow rate was 0.40 mL/min. The ultraviolet (UV) detection wavelength was 286 nm. Q Exactive HRMS were operated at positive ion mode (3.5 kV) using a heating electrospray ionization source. Mass calibration was required to be performed before conducting experiments so as to achieve the best mass accuracy and mass calibration should be performed every five days. The metabolites were detected by full MS/dd-MS^2 analysis from m/z 100 to m/z 1000. The resolution of the first-class scan and second-class scan was 70,000 and 17,500, respectively. Thermo Compound Discover software was used to identify expected and unknown metabolites, and we finally proposed the 7–16 metabolic pathways based on the deduced metabolites and relevant drug biotransformation knowledge.

[5] = Metabolite identification in human liver microsomes; type: in vitro ADME; details: 7–16 10 µM, liver microsomes 1 mg/mL, NADPH, 37 °C, 60 min
Description: as §2, §3

[6] = Metabolite identification in rat liver microsomes; type: in vitro ADME; details: 7–16 10 µM, liver microsomes 1 mg/mL, NADPH, 37 °C, 60 min
Description: as §2, §3

[7] = Metabolite identification in mouse liver microsomes; type: in vitro ADME; details: 7–16 10 µM, liver microsomes 1 mg/mL, NADPH, 37 °C, 60 min
Description: as §2, §3

[8] = Metabolite identification in monkey liver microsomes; type: in vitro ADME; details: 7–16 10 µM, liver microsomes 1 mg/mL, NADPH, 37 °C, 60 min
Description: as §2, §3

Dose% Feces, female [1] | Dose% Urine, female [1] | recovery of radioactivity within the first 24 h, percent of dose ([1]; intact rats, first 24 h post-administration) | Dose% Feces, male [1] | Dose% Urine, male [1] | TRA% Plasma, female [2] | TRA% Plasma, male [2] | Dose% Bile, female [3] | Dose% Bile, male [3] | Relative Abundance, UV Area% Dog [4] | Relative Abundance, UV Area% Human [5] | Relative Abundance, UV Area% Rat [6] | Relative Abundance, UV Area% Mouse [7] | Relative Abundance, UV Area% Monkey [8] | SMILES
16.8% | 23.6% | 76.8% | 5.29% | 9.79% | 81.9% | 57.3% | 0.76% | 0.53% |  |  |  |  |  | CN1CCC(N(Cc2ccc(F)cn2)C(=O)N[14CH2]c2ccc(OCC(F)(F)F)cc2)CC1 [[^14C]7–16]
4.97% | 4.34% |  | 5.42% | 5.75% | 1.11% | 2.50% | 0.41% | 0.83% | 1.73% | 0.60% | 1.10% | 0.61% | 2.52% | CN1CCC(N(Cc2ccc(F)cn2)C(=O)NCc2ccc(O)cc2)CC1 [Compound M372]
21.1% | 2.66% |  | 24.2% | 5.77% | 1.40% | 3.70% | 2.71% | 3.83% | 0.47% | 0.78% | 1.29% | 0.39% | 1.73% | O=C(NCc1ccc(OCC(F)(F)F)cc1)N(Cc1ccc(F)cn1)C1CCNCC1 [Compound M440]
